pIC50: −log10 of the molar value.
How the values were obtained:
5-HT1A receptor [1] = molecular target: T1, 5-HT1A receptor (Rattus norvegicus, UniProt P19327); experiment: 5-HT1A receptor binding in rat hippocampal membrane homogenate (Alexander and Wood)
T1 construct: rat hippocampal membrane homogenate; from tissue; host or cells: rat hippocampus, membrane homogenate
T1 sequence (P19327 1-422): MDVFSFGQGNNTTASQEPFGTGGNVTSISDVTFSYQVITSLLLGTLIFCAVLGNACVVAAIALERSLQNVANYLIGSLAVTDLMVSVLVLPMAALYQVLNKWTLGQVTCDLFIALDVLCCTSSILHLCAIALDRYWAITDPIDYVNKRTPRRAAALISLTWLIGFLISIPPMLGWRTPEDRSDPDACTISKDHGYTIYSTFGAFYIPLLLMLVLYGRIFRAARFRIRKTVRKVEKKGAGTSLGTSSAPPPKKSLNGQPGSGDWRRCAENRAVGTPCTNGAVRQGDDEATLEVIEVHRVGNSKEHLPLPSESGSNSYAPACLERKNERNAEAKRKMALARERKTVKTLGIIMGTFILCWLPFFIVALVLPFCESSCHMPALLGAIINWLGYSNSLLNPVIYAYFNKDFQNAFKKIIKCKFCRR
Experimental: The compounds of the invention were tested for 5-HT1A receptor binding activity in rat hippocampal membrane homogenate by the method of B S Alexander and M D Wood, J Pharm Pharmacol, 1988, 40, 888-891.

5-HT1A receptor [2] = molecular target: T2, 5-HT1A receptor (Cavia porcellus, UniProt A0A286Y074); experiment: 5-HT1A receptor antagonism: antagonism of 5-carboxamidotryptamine in the guinea-pig ileum in vitro (Fozard et al); details: read-out: pA2, 5-HT1A receptor antagonism (converted)
T2 construct: in the guinea-pig ileum in vitro; from tissue; host or cells: guinea-pig ileum, isolated
T2 sequence (A0A286Y074 1-421): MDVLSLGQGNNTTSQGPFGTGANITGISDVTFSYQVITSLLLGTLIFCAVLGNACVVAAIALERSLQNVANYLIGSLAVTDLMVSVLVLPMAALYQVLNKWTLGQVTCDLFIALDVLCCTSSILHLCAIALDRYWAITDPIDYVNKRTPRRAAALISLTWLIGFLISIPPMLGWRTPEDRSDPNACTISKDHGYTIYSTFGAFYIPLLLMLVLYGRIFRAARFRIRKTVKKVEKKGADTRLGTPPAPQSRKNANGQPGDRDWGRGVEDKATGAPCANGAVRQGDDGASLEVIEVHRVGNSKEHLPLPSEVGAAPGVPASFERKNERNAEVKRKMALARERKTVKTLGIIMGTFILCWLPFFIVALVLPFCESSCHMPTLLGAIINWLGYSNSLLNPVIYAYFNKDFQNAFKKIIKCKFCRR
Experimental: The compounds are tested for 5-HT1A receptor antagonism activity in a test involving the antagonism of 5-carboxamidotryptamine in the guinea-pig ileum in vitro (based upon the procedure of Fozard et at, Br J Pharmac, 1985, 86, 601P).

Row | SMILES | pIC50 (5-HT1A receptor [1]) | Kb (5-HT1A receptor [2])
1 | COc1ccccc1N1CCN([C@H]2CC[C@H](c3ccccc3)CC2)CC1 [Example 1 (trans), trans-1-(2-methoxyphenyl)-4-(1-phenylcyclohex-4-yl)piperazine] | 9.22 | 0.794 nM
2 | COc1ccccc1N1CCN(C2CC=C(c3ncc(C)cc3C)CC2)CC1 (stereo not shown) [Example 19, 1-(2-Methoxyphenyl)-4-[1-(3,5-dimethylpyridin-2-yl)-cyclohex-1-en-4-yl]piperazine] | 8.74 | 
3 | COc1ccccc1N1CCN([C@H]2CC[C@H](c3ncc(C)cc3C)CC2)CC1 [Example 20, Trans-1-(2-Methoxyphenyl)-4-[1-(3,5-dimethylpyridin-2-yl)-cyclohex-4-yl]piperazine] | 8.80 | 
